Reference: US5878747A, “Condom coated with acidic polysaccharides” (Fuji Latex Co., Ltd., priority 1993, dated 1999)

Test system: AMV (avian myeloblastosis virus) reverse transcriptase
Test: AMV reverse transcriptase inhibition ([3H]dTTP incorporation)
Assay type: biochemical
Details: 1 Inhibition unit = activity which inhibits 1 unit of reverse transcriptase activity to 50%
Description: 1 unit of AMV (avian myeloblastosis virus) reverse transcriptase was mixed with 50 μl of a mixture (50 mM tris hydrochloride, pH 8.4, 2 mM dithiothreitol, 100 mM KCl, 10 mM MgCl2, 0.1% triton X-100, 50 μg poly (rA)-oligo (dT)/ml, 1.25 μCi [^3 H] dTTP (57 Ci/mmol)) and with various concentration of various sulfated polysaccharides.
The reaction mixtures were incubated and stopped by the addition of 5% trichloroacetic acid. Precipitates were collected on glass fiber filters and their radio activities were determined by a liquid scintilation counter.
1 Inhibition unit is defined as an activity which inhibits 1 unit of reverse transcriptase activity to 50%.

Substance	Inhibition Unit/mg [Inhibition Unit/mg]
Karatan sulfate	30
κ-Carrageenan	30200
λ-Carrageenan	68320
Heparan sulfate	50
Chondroitin sulfate	30
l-Carrageenan	35810
Dermatan sulfate	210
Heparin	830
